# Measurements taken from patent US7947741B2, “Use and administration of bacterial efflux pump inhibitors” (Mpex Pharmaceuticals, Inc., priority 2004, dated 2011).
# Where two headings read alike, the source gives them in different places. Where a SMILES comes first, the peptide text is derived from it. Bridges are numbered along the chain shown (N, C = ends). [ ]: non-standard residue; d: D form. Dab = NCC[C@H](N)C(=O)O
# Tests used:
# [1] = system: P. aeruginosa PAM1723 (nalB, overexpressing MexAB-OprM); test: microbe, parasite or virus in culture; type: cell-based, Pseudomonas aeruginosa; conditions: for MIC: Pseudomonas aeruginosa; for Levofloxacin MIC in the presence of inhibitor: PAM1723
# Procedure: (§1) Stock solutions were further diluted, according to the needs of a particular assay, in Mueller Hinton Broth (MHB). Stock solution was stored at −80° C.
# (§2) The checkerboard assay was performed in microtiter plates. […] The result of these manipulations is that each well of the microtiter plate contains a unique combination of concentrations of the two agents. The assay was performed in MHB with a final bacterial inoculum of 5×10^5 CFU/ml (from an early-log phase culture). Microtiter plates were incubated during 20 h at 35° C. and were read using a microtiterplate reader (Molecular Devices) at 650 nm as well as visual observation using a microtiter plate reading mirror.
# (§3) The test organisms used was PAM1020, which is a wild type strain of P. aeruginosa expressing the basal level of MexAB-OprM, as well as PAM1723, PAM1738, and PAM1753, overexpressing the MexAB-OprM, MexCD-OprJ, and MexEF-OprN pump, respectively.
# Efflux pump inhibitory activity of several commercially available diamidine analogs was evaluated using the checkerboard assay of Example 1 against the strain of P. aeruginosa overexpressing the MexAB-OprM efflux pump.
# [2] = system: P. aeruginosa PAM1020 (pump status none; target mutation none); test: microbe, parasite or virus in culture; type: cell-based, Pseudomonas aeruginosa; conditions: Pseudomonas aeruginosa, read-out: Levofloxacin MIC w/o pentamidine
# Description: (§4) In addition to increased efflux, resistance to fluoroquinolones may be due to target mutations (gyrase and topoisimerase IV) or due to combination of these two resistance mechanisms in a single bacterial cell.
# [3] = system: P. aeruginosa PAM1032 (MexAB-OprM); test: microbe, parasite or virus in culture; type: cell-based, Pseudomonas aeruginosa; conditions: Pseudomonas aeruginosa, read-out: Levofloxacin MIC w/o pentamidine
# Description: as §4
# [4] = system: P. aeruginosa PAM1033 (MexCD-OprJ); test: microbe, parasite or virus in culture; type: cell-based, Pseudomonas aeruginosa; conditions: Pseudomonas aeruginosa, read-out: Levofloxacin MIC w/o pentamidine
# Description: as §4
# [5] = system: P. aeruginosa PAM1034 (MexEF-OprN); test: microbe, parasite or virus in culture; type: cell-based, Pseudomonas aeruginosa; conditions: Pseudomonas aeruginosa, read-out: Levofloxacin MIC w/o pentamidine
# Description: as §4
# [6] = system: P. aeruginosa PAM1482 (MexCD-OprJ; gyrA (Asp87Tyr)); test: microbe, parasite or virus in culture; type: cell-based, Pseudomonas aeruginosa; conditions: Pseudomonas aeruginosa, read-out: Levofloxacin MIC w/o pentamidine
# Description: as §4
# [7] = system: P. aeruginosa PAM1491 (MexEF-OprN; gyrA (Asp87Tyr)); test: microbe, parasite or virus in culture; type: cell-based, Pseudomonas aeruginosa; conditions: Pseudomonas aeruginosa, read-out: Levofloxacin MIC w/o pentamidine
# Description: as §4
# [8] = system: P. aeruginosa PAM1548 (pump status none; gyrA (Thr83Ile)); test: microbe, parasite or virus in culture; type: cell-based, Pseudomonas aeruginosa; conditions: Pseudomonas aeruginosa, read-out: Levofloxacin MIC w/o pentamidine
# Description: as §4
# [9] = system: P. aeruginosa PAM1569 (MexCD-OprJ; gyrA (Thr83Ile)); test: microbe, parasite or virus in culture; type: cell-based, Pseudomonas aeruginosa; conditions: Pseudomonas aeruginosa, read-out: Levofloxacin MIC w/o pentamidine
# Description: as §4
# [10] = system: P. aeruginosa PAM1570 (MexEF-OprN; gyrA (Thr83Ile)); test: microbe, parasite or virus in culture; type: cell-based, Pseudomonas aeruginosa; conditions: Pseudomonas aeruginosa, read-out: Levofloxacin MIC w/o pentamidine
# Description: as §4
# [11] = system: P. aeruginosa PAM1438 (MexAB-OprM, MexCD-OprJ); test: microbe, parasite or virus in culture; type: cell-based, Pseudomonas aeruginosa; conditions: Pseudomonas aeruginosa, read-out: Levofloxacin MIC w/o pentamidine
# Procedure: (§5) A set of strains that simultaneously over-expressed pairs or triplicates of pumps, e.g. PAM2302 and PAM2303 was tested. Simultaneous over-expression of efflux pumps has been recently detected in clinical strains.
# [12] = system: P. aeruginosa PAM2281 (MexAB-OprM, MexEF-OprN); test: microbe, parasite or virus in culture; type: cell-based, Pseudomonas aeruginosa; conditions: Pseudomonas aeruginosa, read-out: Levofloxacin MIC w/o pentamidine
# Procedure: as §5
# [13] = system: P. aeruginosa PAM2282 (MexAB-OprM, MexEF-OprN); test: microbe, parasite or virus in culture; type: cell-based, Pseudomonas aeruginosa; conditions: Pseudomonas aeruginosa, read-out: Levofloxacin MIC w/o pentamidine
# Procedure: as §5
# [14] = system: P. aeruginosa PAM2302 (MexAB-OprM, MexCD-OprJ, MexEF-OprN); test: microbe, parasite or virus in culture; type: cell-based, Pseudomonas aeruginosa; conditions: Pseudomonas aeruginosa, read-out: Levofloxacin MIC w/o pentamidine
# Procedure: as §5
# [15] = system: P. aeruginosa PAM2466 (MexAB-OprM, MexXY-OprM); test: microbe, parasite or virus in culture; type: cell-based, Pseudomonas aeruginosa; conditions: Pseudomonas aeruginosa, read-out: Levofloxacin MIC w/o pentamidine
# Procedure: as §5
# [16] = system: 108 recent clinical isolates of P. aeruginosa obtained from cystic fibrosis patients; test: Susceptibility of cystic fibrosis clinical isolates (broth-micro-dilution, NCCLS); type: cell-based, Pseudomonas aeruginosa; conditions: 108 CF isolates; combinations with 20 μg/ml of pentamidine
# [17] = system: outer membrane of P. aeruginosa strain PAM2005; conditions: Mg2+ free buffer, nitrocefin 64 μg/ml
# [18] = system: P. aeruginosa PAM1020 (wt, basal level of MexAB-OprM); test: Levofloxacin potentiation checkerboard assay (broth microdilution); type: cell-based, Pseudomonas aeruginosa; conditions: PAM1020
# Procedure: as §1, §2, §3
# [19] = system: P. aeruginosa PAM1753 (nfxC, overexpressing MexEF-OprN); test: as above; type: cell-based, Pseudomonas aeruginosa; conditions: for Levofloxacin MIC in the presence of inhibitor: PAM1753
# Procedure: as §1, §2, §3
# [20] = system: P. aeruginosa PAM1738 (nfxB, overexpressing MexCD-OprJ); test: microbe, parasite or virus in culture; type: cell-based, Pseudomonas aeruginosa; conditions: for Levofloxacin MIC in the presence of inhibitor: PAM1738
# Procedure: as §1, §2, §3
# [21] = system: P. aeruginosa PAM1626 (lacks all the three efflux pumps); test: microbe, parasite or virus in culture; type: cell-based, Pseudomonas aeruginosa; conditions: for Levofloxacin MIC in the presence of inhibitor: PAM1626
# [22] = molecular target: MexAB-OprM-mediated efflux of Leu-Nap, PAM1723 cells (Pseudomonas aeruginosa, UniProt P52002); test: Leu-Nap accumulation assay; type: cell-based; conditions: Leu-Nap 100 μg/ml
# [23] = system: P. aeruginosa PAM1723 (MexAB-OprM overexpressed); type: cell-based, Pseudomonas aeruginosa
# [24] = system: P. aeruginosa PAM1154 (MexAB-OprM deleted); type: cell-based, Pseudomonas aeruginosa
# [25] = intravenous infusion; cited from earlier work
# [26] = Pseudomonas aeruginosa, read-out: MIC* (MIC for the efflux pump inhibitor)
# Chain of MexAB-OprM-mediated efflux of Leu-Nap, PAM1723 cells (Q51487 18-485): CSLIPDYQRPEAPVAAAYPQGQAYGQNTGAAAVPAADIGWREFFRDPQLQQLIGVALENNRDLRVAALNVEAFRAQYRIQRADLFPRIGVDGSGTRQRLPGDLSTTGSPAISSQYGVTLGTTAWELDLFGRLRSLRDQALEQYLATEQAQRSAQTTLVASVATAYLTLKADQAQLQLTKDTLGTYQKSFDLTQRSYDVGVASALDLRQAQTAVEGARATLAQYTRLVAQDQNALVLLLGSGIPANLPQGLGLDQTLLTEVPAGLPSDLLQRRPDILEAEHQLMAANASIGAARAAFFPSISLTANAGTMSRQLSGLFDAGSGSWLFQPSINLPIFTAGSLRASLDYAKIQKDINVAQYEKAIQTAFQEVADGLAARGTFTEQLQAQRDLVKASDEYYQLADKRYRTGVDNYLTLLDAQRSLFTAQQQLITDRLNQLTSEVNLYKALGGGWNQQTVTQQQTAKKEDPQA
# Chain of MexAB-OprM-mediated efflux of Leu-Nap, PAM1723 cells (P52002 whole entry): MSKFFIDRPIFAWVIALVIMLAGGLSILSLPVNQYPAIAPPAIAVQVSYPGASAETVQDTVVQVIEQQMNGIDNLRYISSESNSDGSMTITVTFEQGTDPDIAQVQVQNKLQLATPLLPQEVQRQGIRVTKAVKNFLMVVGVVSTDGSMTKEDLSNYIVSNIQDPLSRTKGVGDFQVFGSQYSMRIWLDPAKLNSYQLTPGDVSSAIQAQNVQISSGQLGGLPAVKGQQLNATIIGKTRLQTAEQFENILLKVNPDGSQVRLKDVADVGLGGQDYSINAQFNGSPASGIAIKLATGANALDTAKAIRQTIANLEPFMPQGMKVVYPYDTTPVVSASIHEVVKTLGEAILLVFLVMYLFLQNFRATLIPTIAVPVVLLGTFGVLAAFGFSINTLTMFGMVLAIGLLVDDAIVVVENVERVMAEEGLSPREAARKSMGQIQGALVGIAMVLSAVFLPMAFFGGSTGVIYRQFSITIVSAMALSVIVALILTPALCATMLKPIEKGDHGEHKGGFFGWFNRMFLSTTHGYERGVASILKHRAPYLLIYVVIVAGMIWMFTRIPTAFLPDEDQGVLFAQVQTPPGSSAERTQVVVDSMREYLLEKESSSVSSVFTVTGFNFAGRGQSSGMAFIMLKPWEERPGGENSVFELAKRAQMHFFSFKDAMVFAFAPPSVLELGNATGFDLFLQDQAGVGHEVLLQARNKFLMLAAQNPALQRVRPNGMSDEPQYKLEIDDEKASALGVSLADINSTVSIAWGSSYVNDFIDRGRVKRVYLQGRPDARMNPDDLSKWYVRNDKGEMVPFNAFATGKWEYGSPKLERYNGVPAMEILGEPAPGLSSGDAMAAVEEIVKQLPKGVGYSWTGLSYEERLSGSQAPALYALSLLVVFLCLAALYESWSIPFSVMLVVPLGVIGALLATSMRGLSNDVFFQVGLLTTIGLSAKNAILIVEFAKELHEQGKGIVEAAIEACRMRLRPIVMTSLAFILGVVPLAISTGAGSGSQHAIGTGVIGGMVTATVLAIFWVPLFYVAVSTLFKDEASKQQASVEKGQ
# Chain of MexAB-OprM-mediated efflux of Leu-Nap, PAM1723 cells (P52477 24-383, further chain): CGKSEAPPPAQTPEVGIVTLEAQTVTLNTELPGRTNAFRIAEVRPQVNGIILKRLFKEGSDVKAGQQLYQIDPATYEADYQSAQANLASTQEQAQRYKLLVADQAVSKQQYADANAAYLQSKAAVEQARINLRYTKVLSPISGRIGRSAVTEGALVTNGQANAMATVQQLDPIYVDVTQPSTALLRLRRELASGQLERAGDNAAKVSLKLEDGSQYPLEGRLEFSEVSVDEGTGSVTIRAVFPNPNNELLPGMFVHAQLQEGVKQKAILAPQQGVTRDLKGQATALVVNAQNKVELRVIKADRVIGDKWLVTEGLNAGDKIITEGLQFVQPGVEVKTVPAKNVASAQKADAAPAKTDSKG
smiles,measurement,setting,value
"C[C@H]1COc2c(N3CCN(C)CC3)c(F)cc3c(=O)c(C(=O)O)cn1c23 [Levofloxacin, levofloxacin]",MIC,"[1]; read-out: Levofloxacin MIC in the presence of inhibitor, PAM1723, inhibitor 0 μg/ml",2 µg/mL
same,MIC,[2],0.25 µg/mL
same,MIC,[3],2 µg/mL
same,MIC,[4],4 µg/mL
same,MIC,[5],4 µg/mL
same,MIC,[6],16 µg/mL
same,MIC,[7],32 µg/mL
same,MIC,[8],2 µg/mL
same,MIC,[9],32 µg/mL
same,MIC,[10],32 µg/mL
same,MIC,[11],4 µg/mL
same,MIC,[12],8 µg/mL
same,MIC,[13],8 µg/mL
same,MIC,[14],8 µg/mL
same,MIC,[15],2 µg/mL
same,MIC50,[16],2 µg/mL
same,MIC90,[16],8 µg/mL
CC(C)C[C@@H]1NC(=O)[C@@H](Cc2ccccc2)NC(=O)[C@H](CCN)NC(=O)[C@@H](NC(=O)[C@H](CCN)NC(=O)[C@@H](N)[C@@H](C)O)CCNC(=O)[C@H]([C@@H](C)O)NC(=O)[C@H](CCN)NC(=O)[C@H](CCN)NC1=O [PMBN] (H-T[Dab][Dab][Dab][dF]L[Dab][Dab]T; lactam 3-C; N-terminus assumed),"IC50, permeabilization of the outer membrane",[17],< 2 µg/mL
"N=C(N)c1ccc(OCCCOc2ccc(C(=N)N)cc2)cc1 [Propamidine, propamidine]",Levofloxacin MIC in the presence of inhibitor,[18]; inhibitor 1.25 μg/ml,0.25 µg/mL
same,Levofloxacin MIC in the presence of inhibitor,[18]; inhibitor 2.5 μg/ml,0.125 µg/mL
same,Levofloxacin MIC in the presence of inhibitor,[18]; inhibitor 5 μg/ml,0.125 µg/mL
same,Levofloxacin MIC in the presence of inhibitor,[18]; inhibitor 10 μg/ml,0.06 µg/mL
same,Levofloxacin MIC in the presence of inhibitor,[18]; inhibitor 20 μg/ml,0.03 µg/mL
same,MIC,"[18]; Pseudomonas aeruginosa, inhibitor alone, read-out: MIC* (MIC for the efflux pump inhibitor)",40 µg/mL
same,Levofloxacin MIC in the presence of inhibitor,[19]; inhibitor 1.25 μg/ml,4 µg/mL
same,Levofloxacin MIC in the presence of inhibitor,[19]; inhibitor 2.5 μg/ml,2 µg/mL
same,MIC,[19]; [26],5 µg/mL
same,Levofloxacin MIC in the presence of inhibitor,[1]; inhibitor 1.25 μg/ml,2 µg/mL
same,Levofloxacin MIC in the presence of inhibitor,[1]; inhibitor 2.5 μg/ml,2 µg/mL
same,Levofloxacin MIC in the presence of inhibitor,[1]; inhibitor 5 μg/ml,1 µg/mL
same,Levofloxacin MIC in the presence of inhibitor,[1]; inhibitor 10 μg/ml,0.5 µg/mL
same,Levofloxacin MIC in the presence of inhibitor,[1]; inhibitor 20 μg/ml,0.25 µg/mL
same,MIC,"[1]; read-out: MIC* (MIC for the efflux pump inhibitor), PAM1723, inhibitor alone",40 µg/mL
same,Levofloxacin MIC in the presence of inhibitor,[20]; inhibitor 1.25 μg/ml,0.5 µg/mL
same,Levofloxacin MIC in the presence of inhibitor,[20]; inhibitor 2.5 μg/ml,0.5 µg/mL
same,Levofloxacin MIC in the presence of inhibitor,[20]; inhibitor 5 μg/ml,0.25 µg/mL
same,Levofloxacin MIC in the presence of inhibitor,[20]; inhibitor 10 μg/ml,0.125 µg/mL
same,Levofloxacin MIC in the presence of inhibitor,[20]; inhibitor 20 μg/ml,0.015 µg/mL
same,MIC,[20]; [26],40 µg/mL
same,Levofloxacin MIC in the presence of inhibitor,[21]; inhibitor 1.25 μg/ml,0.015 µg/mL
same,Levofloxacin MIC in the presence of inhibitor,[21]; inhibitor 2.5 μg/ml,0.007 µg/mL
same,Levofloxacin MIC in the presence of inhibitor,[21]; inhibitor 5 μg/ml,0.007 µg/mL
same,MIC,[21]; [26],10 µg/mL
same,inhibitor concentration at which rate of Leu-Nap uptake in PAM1723 and PAM1626 is the same (complete inhibition of efflux),[22],160 µg/mL
"NC[C@H]1O[C@H](O[C@H]2[C@H](O)[C@@H](O[C@H]3O[C@H](CO)[C@@H](O)[C@H](N)[C@H]3O)[C@H](N)C[C@@H]2N)[C@H](N)C[C@@H]1O [Tb, tobramycin]",decrease of the MIC by pentamidine,[23],almost no effect
same,"MIC, No Pentamidine",[23]; PAM1723 (MexAB-OprM overexpressed),0.06 µg/mL
same,"MIC, Pentamidine (40 μg/ml)","[23]; PAM1723 (MexAB-OprM overexpressed), in the presence of pentamidine 40 μg/ml",0.03
same,"MIC, No Pentamidine",[24],0.03 µg/mL
"N=C(N)c1ccc(OCCCCCOc2ccc(C(=N)N)cc2)cc1 [pentamidine isethionate, 4,4′-diamidino-diphenoxypentane di(β-hydroxyethanesulfonate)]",plasma levels during the first two hours following an intravenous infusion,[25],one-twentieth of peak levels
